Paper PMC6540285, “Evaluation of Protein Kinase Inhibitors with PLK4 Cross-Over Potential in a Pre-Clinical Model of Cancer” (International Journal of Molecular Sciences, 2019)

Columns and labels:
[1] = biological target: AMPK A2/B1/G1 (Homo sapiens, UniProt P54646); assay: SelectScreen kinase profiling, ZLYTE; type: biochemical; settings: AMPK A2/B1/G1, 10 µM
[2] = biological target: CAMK2A (CaMKII alpha) (Homo sapiens, UniProt Q9UQM7); assay: SelectScreen kinase profiling, ZLYTE; type: biochemical
[3] = biological target: CDK3/cyclin E1 (Homo sapiens, UniProt Q00526); assay: SelectScreen kinase profiling, LanthaScreen binding; settings: CDK3/cyclin E1, 10 µM
[4] = biological target: CLK3 (Homo sapiens, UniProt P49761); assay: SelectScreen kinase profiling, ZLYTE; type: biochemical; settings: CLK3, 10 µM
Sequence of CLK3 (P49761 whole entry): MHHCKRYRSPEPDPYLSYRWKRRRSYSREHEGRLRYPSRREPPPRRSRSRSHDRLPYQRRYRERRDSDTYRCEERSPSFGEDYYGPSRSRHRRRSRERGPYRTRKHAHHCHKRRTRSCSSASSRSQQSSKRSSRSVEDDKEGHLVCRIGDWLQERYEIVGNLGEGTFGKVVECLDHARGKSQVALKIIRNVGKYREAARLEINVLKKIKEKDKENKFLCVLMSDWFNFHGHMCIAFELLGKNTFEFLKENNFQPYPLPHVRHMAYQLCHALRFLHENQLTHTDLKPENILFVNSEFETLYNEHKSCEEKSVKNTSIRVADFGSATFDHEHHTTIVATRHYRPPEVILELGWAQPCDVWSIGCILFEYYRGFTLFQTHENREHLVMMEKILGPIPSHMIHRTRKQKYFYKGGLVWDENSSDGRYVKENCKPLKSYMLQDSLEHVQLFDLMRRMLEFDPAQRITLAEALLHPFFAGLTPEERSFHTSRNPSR

[5] = biological target: EPHA4 (Homo sapiens, UniProt P54764); assay: SelectScreen kinase profiling, ZLYTE; type: biochemical; settings: EPHA4, 10 µM
[6] = biological target: EPHB2 (Homo sapiens, UniProt P29323); assay: SelectScreen kinase profiling, ZLYTE; type: biochemical; settings: EPHB2, 10 µM
Sequence of EPHB2 (P29323 19-1055): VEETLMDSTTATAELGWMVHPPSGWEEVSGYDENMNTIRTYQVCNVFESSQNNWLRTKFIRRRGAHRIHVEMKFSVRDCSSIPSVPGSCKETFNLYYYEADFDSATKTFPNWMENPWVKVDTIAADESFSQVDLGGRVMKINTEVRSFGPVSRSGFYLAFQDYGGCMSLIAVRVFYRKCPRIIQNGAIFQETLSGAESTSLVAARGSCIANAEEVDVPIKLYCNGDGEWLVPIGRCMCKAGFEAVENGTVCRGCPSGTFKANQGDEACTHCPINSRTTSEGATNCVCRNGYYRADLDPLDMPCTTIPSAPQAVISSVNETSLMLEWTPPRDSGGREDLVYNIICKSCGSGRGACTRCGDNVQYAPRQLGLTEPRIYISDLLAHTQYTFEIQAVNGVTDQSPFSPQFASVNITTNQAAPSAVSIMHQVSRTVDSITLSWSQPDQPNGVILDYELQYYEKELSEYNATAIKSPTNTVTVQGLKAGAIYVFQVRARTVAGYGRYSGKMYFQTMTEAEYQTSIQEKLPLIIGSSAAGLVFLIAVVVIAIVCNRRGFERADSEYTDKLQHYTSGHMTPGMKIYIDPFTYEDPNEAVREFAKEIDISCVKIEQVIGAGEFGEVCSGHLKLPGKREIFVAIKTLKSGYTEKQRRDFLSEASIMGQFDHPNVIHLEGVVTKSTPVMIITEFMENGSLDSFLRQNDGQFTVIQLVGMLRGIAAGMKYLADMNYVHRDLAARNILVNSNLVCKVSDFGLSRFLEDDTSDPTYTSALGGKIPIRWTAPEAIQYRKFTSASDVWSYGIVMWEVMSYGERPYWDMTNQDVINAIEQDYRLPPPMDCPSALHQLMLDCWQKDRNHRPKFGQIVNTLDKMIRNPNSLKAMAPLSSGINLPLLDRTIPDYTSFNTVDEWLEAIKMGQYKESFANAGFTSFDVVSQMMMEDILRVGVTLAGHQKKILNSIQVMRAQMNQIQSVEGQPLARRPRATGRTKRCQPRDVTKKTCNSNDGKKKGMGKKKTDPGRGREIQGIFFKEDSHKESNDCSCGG

[7] = biological target: ERBB4 (HER4) (Homo sapiens, UniProt Q15303); assay: SelectScreen kinase profiling, ZLYTE; type: biochemical
[8] = biological target: FER (Homo sapiens, UniProt P16591); assay: SelectScreen kinase profiling, ZLYTE; type: biochemical
[9] = biological target: FGFR3 K650E (Homo sapiens, UniProt P22607, K650E); assay: SelectScreen kinase profiling, ZLYTE; type: biochemical
[10] = biological target: FGFR3 V555M (Homo sapiens, UniProt P22607, V555M); assay: SelectScreen kinase profiling, ZLYTE; type: biochemical
[11] = biological target: HIPK3 (YAK1) (Homo sapiens, UniProt Q9H422); assay: SelectScreen kinase profiling, ZLYTE; type: biochemical
Sequence of HIPK3 (YAK1) (Q9H422 whole entry): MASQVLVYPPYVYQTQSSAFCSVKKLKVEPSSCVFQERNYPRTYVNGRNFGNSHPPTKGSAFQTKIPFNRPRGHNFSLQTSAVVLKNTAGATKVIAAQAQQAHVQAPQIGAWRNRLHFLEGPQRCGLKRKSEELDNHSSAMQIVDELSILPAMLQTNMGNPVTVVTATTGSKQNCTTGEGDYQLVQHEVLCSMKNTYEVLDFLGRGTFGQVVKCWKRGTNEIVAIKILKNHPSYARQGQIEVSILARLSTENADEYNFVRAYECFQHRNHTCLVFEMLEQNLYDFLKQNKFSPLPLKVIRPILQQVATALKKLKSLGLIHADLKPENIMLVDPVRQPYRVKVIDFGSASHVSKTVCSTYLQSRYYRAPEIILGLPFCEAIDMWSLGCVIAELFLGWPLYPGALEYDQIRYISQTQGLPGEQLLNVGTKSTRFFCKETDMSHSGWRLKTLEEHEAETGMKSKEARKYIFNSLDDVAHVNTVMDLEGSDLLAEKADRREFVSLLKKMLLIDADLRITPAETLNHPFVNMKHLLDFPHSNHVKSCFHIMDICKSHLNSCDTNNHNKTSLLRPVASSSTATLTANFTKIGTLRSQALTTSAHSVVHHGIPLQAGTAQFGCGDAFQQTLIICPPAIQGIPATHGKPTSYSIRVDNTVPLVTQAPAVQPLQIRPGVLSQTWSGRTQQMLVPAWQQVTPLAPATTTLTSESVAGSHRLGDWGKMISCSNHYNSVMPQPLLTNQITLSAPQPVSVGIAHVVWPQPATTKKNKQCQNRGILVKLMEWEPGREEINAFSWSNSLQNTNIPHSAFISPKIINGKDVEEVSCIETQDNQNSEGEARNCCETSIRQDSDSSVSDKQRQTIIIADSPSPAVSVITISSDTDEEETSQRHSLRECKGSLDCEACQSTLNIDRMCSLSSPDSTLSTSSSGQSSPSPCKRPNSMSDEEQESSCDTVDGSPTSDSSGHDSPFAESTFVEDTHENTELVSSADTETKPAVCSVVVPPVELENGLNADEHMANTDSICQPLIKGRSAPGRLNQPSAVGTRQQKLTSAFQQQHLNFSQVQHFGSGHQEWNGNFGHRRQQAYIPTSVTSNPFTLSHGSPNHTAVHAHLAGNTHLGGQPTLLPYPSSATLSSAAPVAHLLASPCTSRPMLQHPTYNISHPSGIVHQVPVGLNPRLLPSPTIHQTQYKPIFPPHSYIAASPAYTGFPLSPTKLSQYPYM

[12] = biological target: KIT D820E (Homo sapiens, UniProt P10721, D820E); assay: SelectScreen kinase profiling, LanthaScreen binding
Sequence of KIT D820E (P10721 26-976 D820E): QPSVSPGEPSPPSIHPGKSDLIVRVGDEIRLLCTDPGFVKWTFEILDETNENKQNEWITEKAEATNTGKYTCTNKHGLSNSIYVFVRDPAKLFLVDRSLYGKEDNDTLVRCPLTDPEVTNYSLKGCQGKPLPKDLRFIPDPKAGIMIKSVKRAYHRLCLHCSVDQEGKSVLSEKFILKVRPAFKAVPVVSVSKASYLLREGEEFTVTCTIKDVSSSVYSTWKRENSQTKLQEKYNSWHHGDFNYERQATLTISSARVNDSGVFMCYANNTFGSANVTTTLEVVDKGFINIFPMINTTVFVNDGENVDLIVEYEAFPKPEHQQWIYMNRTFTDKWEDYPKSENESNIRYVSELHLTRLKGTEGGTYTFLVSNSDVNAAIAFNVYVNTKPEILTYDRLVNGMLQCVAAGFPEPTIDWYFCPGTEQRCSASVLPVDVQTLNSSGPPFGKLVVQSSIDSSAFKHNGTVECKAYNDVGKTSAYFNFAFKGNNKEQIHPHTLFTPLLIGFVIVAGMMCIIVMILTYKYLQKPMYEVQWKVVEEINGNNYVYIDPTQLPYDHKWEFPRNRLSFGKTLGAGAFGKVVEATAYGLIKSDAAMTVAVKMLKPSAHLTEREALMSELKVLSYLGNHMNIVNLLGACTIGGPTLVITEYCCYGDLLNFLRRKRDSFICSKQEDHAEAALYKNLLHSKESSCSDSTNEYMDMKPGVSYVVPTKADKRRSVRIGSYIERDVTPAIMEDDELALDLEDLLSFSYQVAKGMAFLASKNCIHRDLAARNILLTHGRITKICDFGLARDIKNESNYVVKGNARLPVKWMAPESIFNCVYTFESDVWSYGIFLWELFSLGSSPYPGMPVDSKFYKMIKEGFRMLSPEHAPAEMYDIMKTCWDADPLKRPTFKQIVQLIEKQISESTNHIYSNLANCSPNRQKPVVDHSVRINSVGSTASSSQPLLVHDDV

[13] = biological target: KIT Y823D (Homo sapiens, UniProt P10721, Y823D); assay: as above
Sequence of KIT Y823D (P10721 26-976 Y823D): as the sequence (P10721 26-976 D820E) above, with E795D, Y798D counted along it

[14] = biological target: MAP2K1 (MEK1) (Homo sapiens, UniProt Q02750); assay: as above
[15] = biological target: MAP2K6 (MKK6) (Homo sapiens, UniProt P52564); assay: as above
Sequence of MAP2K6 (MKK6) (P52564 whole entry): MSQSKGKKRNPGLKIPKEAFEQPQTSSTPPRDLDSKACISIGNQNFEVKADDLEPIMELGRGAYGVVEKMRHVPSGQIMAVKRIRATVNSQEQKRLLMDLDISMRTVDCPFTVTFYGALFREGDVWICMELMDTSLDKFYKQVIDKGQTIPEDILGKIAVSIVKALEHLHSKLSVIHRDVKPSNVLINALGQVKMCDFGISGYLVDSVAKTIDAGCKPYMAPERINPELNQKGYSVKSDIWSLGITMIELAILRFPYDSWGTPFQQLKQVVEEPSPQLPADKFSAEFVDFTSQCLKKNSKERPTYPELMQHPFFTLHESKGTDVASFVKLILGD

[16] = biological target: PHKG1 (Homo sapiens, UniProt Q16816); assay: SelectScreen kinase profiling, ZLYTE; type: biochemical; settings: PHKG1, 10 µM
[17] = biological target: PI4K2B (PI4K2 beta) (Homo sapiens, UniProt Q8TCG2); assay: SelectScreen kinase profiling, Adapta; type: biochemical
[18] = biological target: PIP5K1B (Homo sapiens, UniProt O14986); assay: SelectScreen kinase profiling, Adapta; type: biochemical
[19] = biological target: PIP5K1C (Homo sapiens, UniProt O60331); assay: SelectScreen kinase profiling, Adapta; type: biochemical
Sequence of PIP5K1C (O60331 whole entry): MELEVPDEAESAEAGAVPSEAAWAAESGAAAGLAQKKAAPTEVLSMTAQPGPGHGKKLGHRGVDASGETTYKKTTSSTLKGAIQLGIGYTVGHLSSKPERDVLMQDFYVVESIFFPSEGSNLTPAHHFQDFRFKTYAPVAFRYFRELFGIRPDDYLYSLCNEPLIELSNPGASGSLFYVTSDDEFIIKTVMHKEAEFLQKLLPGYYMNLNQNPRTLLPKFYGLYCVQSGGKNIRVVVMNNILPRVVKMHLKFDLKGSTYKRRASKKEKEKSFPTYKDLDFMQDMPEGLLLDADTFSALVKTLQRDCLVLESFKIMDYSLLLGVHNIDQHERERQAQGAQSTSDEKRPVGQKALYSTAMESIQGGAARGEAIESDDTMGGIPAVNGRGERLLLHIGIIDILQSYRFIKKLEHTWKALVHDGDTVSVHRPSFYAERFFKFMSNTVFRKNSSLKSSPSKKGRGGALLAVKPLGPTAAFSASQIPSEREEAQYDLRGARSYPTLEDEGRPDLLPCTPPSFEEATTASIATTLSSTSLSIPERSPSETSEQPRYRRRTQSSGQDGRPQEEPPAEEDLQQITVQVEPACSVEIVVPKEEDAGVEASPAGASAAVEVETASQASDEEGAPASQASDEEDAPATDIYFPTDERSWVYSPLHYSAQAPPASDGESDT

[20] = biological target: PRKCI (PKC iota) (Homo sapiens, UniProt P41743); assay: SelectScreen kinase profiling, ZLYTE; type: biochemical
[21] = biological target: RIPK2 (Homo sapiens, UniProt O43353); assay: SelectScreen kinase profiling, LanthaScreen binding; settings: RIPK2, 10 µM
[22] = biological target: STK32C (YANK3) (Homo sapiens, UniProt Q86UX6); assay: as above
From the text: (§1) Kinase Technology % Inhibition Avg Kinase Technology % Inhibition Avg […]

[23] = biological target: STK33 (Homo sapiens, UniProt Q9BYT3); assay: as above; settings: STK33, 10 µM
From the text: as §1

[24] = biological target: STK38L (NDR2) (Homo sapiens, UniProt Q9Y2H1); assay: as above
From the text: as §1

[25] = biological target: STK39 (STLK3) (Homo sapiens, UniProt Q9UEW8); assay: as above
From the text: as §1

[26] = biological target: TAOK3 (JIK) (Homo sapiens, UniProt Q9H2K8); assay: as above
From the text: as §1

[27] = biological target: TEC (Homo sapiens, UniProt P42680); assay: as above
From the text: as §1

[28] = biological target: TEK (TIE2) R849W (Homo sapiens, UniProt Q02763, R849W); assay: as above
From the text: as §1

[29] = biological target: TGFBR2 (Homo sapiens, UniProt P37173); assay: as above; settings: TGFBR2, 10 µM
From the text: as §1

[30] = biological target: TLK2 (Homo sapiens, UniProt Q86UE8); assay: as above; settings: TLK2, 10 µM
From the text: as §1

[31] = biological target: TNK2 (ACK) (Homo sapiens, UniProt Q07912); assay: as above
From the text: as §1

[32] = biological target: TTK (Homo sapiens, UniProt P33981); assay: as above
From the text: as §1

[33] = biological target: ULK2 (Homo sapiens, UniProt Q8IYT8); assay: as above; settings: ULK2, 10 µM
From the text: as §1

[34] = biological target: VRK2 (Homo sapiens, UniProt Q86Y07); assay: as above; settings: VRK2, 10 µM
From the text: as §1

[35] = biological target: WNK1 (Homo sapiens, UniProt Q9H4A3); assay: as above; settings: WNK1, 10 µM
From the text: as §1

[36] = biological target: WNK2 (Homo sapiens, UniProt Q9Y3S1); assay: as above; settings: WNK2, 10 µM
From the text: as §1

[37] = biological target: WNK3 (Homo sapiens, UniProt Q9BYP7); assay: as above; settings: WNK3, 10 µM
From the text: as §1

[38] = biological target: ZAK (Homo sapiens, UniProt Q9NYL2); assay: as above
From the text: as §1

[39] = biological target: ULK3 (Homo sapiens, UniProt Q6PHR2); assay: as above; settings: ULK3, 10 µM
[40] = tested on: MON cells; assay: cells; settings: read-out: MTT: IC50 of the proliferation assay

## O=C(c1ccc(/C=C/c2n[nH]c3ccccc23)cc1)N1CCNCC1 [KW-2449]
[1]
  inhibition at 10 µM: 99%
[2]
  inhibition at 10 µM: 67%
[3]
  inhibition at 10 µM: 48%
[4]
  inhibition at 10 µM: 66%
[5]
  inhibition at 10 µM: 83%
[6]
  inhibition at 10 µM: 95%
[7]
  inhibition at 10 µM: 55%
[8]
  inhibition at 10 µM: 98%
[9]
  inhibition at 10 µM: 97%
[10]
  inhibition at 10 µM: 100%
[11]
  inhibition at 10 µM: 53%
[12]
  inhibition at 10 µM: 81%
[13]
  inhibition at 10 µM: 61%
[14]
  inhibition at 10 µM: 54%
[15]
  inhibition at 10 µM: 56%
[16]
  inhibition at 10 µM: 100%
[17]
  inhibition at 10 µM: -1%
[18]
  inhibition at 10 µM: 32%
[19]
  inhibition at 10 µM: 7%
[20]
  inhibition at 10 µM: 7%
[21]
  inhibition at 10 µM: 77%
[22]
  inhibition at 10 µM: 62%
[23]
  inhibition at 10 µM: 81%
[24]
  inhibition at 10 µM: 59%
[25]
  inhibition at 10 µM: 38%
[26]
  inhibition at 10 µM: 25%
[27]
  inhibition at 10 µM: -9%
[28]
  inhibition at 10 µM: -5%
[29]
  inhibition at 10 µM: 77%
[30]
  inhibition at 10 µM: 33%
[31]
  inhibition at 10 µM: 71%
[32]
  inhibition at 10 µM: 54%
[33]
  inhibition at 10 µM: 56%
[34]
  inhibition at 10 µM: 32%
[35]
  inhibition at 10 µM: 2%
[36]
  inhibition at 10 µM: 1%
[37]
  inhibition at 10 µM: 7%
[38]
  inhibition at 10 µM: 77%
[39]
  inhibition at 10 µM: 5%
[40]
  IC50: 2450 nM
